Entries after “also recorded” stand apart in the source; their conditions may differ.
How the values were obtained:
human factor Xa = target: T1, human factor Xa (Homo sapiens, UniProt P00742); experiment: Fluorogenic activity assay (fluorescent peptidyl substrate cleavage), factor Xa; type: biochemical; conditions: for IC50: factor Xa 0.5 nM, fluorogenic substrate 50 μM; for factor Xa inhibition, result in words: fluorogenic substrate assay; for antidote reversal of factor Xa inhibition by 11F7t-20A-DAB, result in words: antidote oligonucleotide
T1 construct: Human alpha thrombin, human factor Xa, and human fibrinogen were purchased from Haematologic Technologies Inc; purchased Haematologic Technologies Inc
T1 sequence (P00742 235-488 limits assumed): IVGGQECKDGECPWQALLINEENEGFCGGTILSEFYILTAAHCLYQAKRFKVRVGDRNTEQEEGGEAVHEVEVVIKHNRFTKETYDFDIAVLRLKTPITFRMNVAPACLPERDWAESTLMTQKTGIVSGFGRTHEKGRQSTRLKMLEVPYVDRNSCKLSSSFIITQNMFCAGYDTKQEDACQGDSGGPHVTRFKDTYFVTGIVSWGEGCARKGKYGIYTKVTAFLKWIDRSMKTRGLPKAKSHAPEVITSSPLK
T1 sequence (P00742 41-179 limits assumed): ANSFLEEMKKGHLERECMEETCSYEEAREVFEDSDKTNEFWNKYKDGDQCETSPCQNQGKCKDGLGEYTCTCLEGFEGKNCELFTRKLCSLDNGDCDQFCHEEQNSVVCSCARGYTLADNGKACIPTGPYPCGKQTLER
Description: (§2) Fluorogenic activity assay: All reagents were freshly reconstituted in the reaction buffer (20 mM HEPES, 150 mM NaCl, and 2 mM CaCl2), 0.02%, Tween 20, pH 7.5) before the assay. 10 μL of thrombin or factor Xa (final concentration 0.5 nM) were first incubated with 5 μL of inhibitor, inhibitor/antidote mixture, or buffer control on a 384-well opaque plate for 5 min at 28° C. 10 μL of fluorogenic substrate (final concentration 50 μM) was then added to the mixture and the time-course fluorescence (λex=352 nm, λem=470 nm) of the sample were recorded every minute for 15 min at 28° C. using a SpectraMax i3 microplate reader (Molecular Devices). The catalytic rate of the protease was quantified by the slope from linear regression of the time-dependent fluorescence intensity and normalized with the sample containing no inhibitor as 100%. Each experiment was performed in triplicates.

normal human plasma [1] = experiment: Activated partial thromboplastin time (aPTT) plasma coagulation assay; conditions: for effect on aPTT, result in words: normal human plasma, comparison with DAB at 500 nM
Description: (§1) Plasma coagulation assays: Thrombin time (TT), prothrombin time (PT), and activated partial thromboplastin time (aPTT) assays were performed in citrated normal human plasma on a hemostasis coagulation analyzer (Diagnostica Stago). For TT, 5 μL of inhibitors in the reaction buffer were mixed with 100 μL of plasma and incubated at 37° C. for 5 min. 50 μL of thrombin (6 NIH units/ml) in the reaction buffer was then added to initiate clotting. For PT, 5 μl of inhibitors in the reaction buffer were mixed with 50 μL of plasma and incubated at 37° C. for 5 min. 100 μL of TriniCLOT PT Excel S reagent was then added to initiate clotting. For aPTT, 5 μL of inhibitors in the reaction buffer were mixed with 50 μL of plasma and incubated at 37° C. for 5 min, 50 μL of TriniCLOT aPTT S reagents was then added followed by another 5 min incubation at 37° C. Finally, 50 μL of 20 mM CaCl2) was added to initiate clotting. To characterize antidote reversal of HD22-7A-DAB in the above assays, 5 μL AO2 (finial concentration 2 μM) in the reaction buffer was added after 5-min incubation between plasma and HD22-7A-DAB, followed by another 5 min of incubation before the next step. All assays are performed induplicates.

Human alpha thrombin = Human alpha thrombin (Homo sapiens, UniProt P00734); experiment: Fluorogenic activity assay (fluorescent peptidyl substrate cleavage), thrombin; conditions: for thrombin inhibition, result in words / antidote reversal of thrombin inhibition, result in words: fluorogenic substrate assay; for antidote reversal of thrombin inhibition, result in words: antidote oligonucleotide; for maximum inhibition of thrombin activity: thrombin 0.5 nM, fluorogenic substrate
Description: Initial velocity studies of fluorescent peptidyl substrate cleavage by thrombin were used to assess protease inhibition by the EXACT inhibitor (FIG. 1c).
as §2

factor Xa = conditions: cited from earlier work
[2] = target: T2, thrombin (cleavage of fibrinogen) (Homo sapiens, UniProt P00734); experiment: Fibrinogen turbidity assay; type: biochemical; conditions: for inhibition of thrombin-mediated fibrin clot formation, result in words: 50 nM inhibitor, 2.5 nM thrombin, 0.8 mg/mL fibrinogen, absorbance 550 nm
T2 construct: Human alpha thrombin, human factor Xa, and human fibrinogen were purchased from Haematologic Technologies Inc; purchased Haematologic Technologies Inc
Description: To test the kinetics of antidote reversal, 1 μL AO2 (final concentration 2 μM) was added to the reaction 10 min after fibrinogen addition. The maximum absorption over the period of assay in the absence and presence of different inhibitors were determined. The time to reach 10%, 50%, and 90% maximum absorption increase from the start point were calculated and recorded as lag time, t50, and t90, respectively, for each inhibitor to evaluate the kinetic of fibrinogen activation. Each experiment was performed in triplicates to determine the mean and standard deviation of each parameter.

normal human plasma [3] = experiment: Thrombin time (TT) plasma coagulation assay; conditions: for effect on TT, result in words: normal human plasma
Description: as §1

normal human plasma [4] = experiment: Prothrombin time (PT) plasma coagulation assay; conditions: for effect on PT, result in words: normal human plasma, comparison with DAB at 500 nM
Description: as §1

[5] = target: T3, thrombin (FVIII activation) (Homo sapiens, UniProt P00734); experiment: Thrombin cleavage of FVIII (SDS-PAGE); type: biochemical; conditions: 100 nM inhibitor, 1 nM thrombin, 100 nM FVIII
T3 construct: Human alpha thrombin, human factor Xa, and human fibrinogen were purchased from Haematologic Technologies Inc; purchased Haematologic Technologies Inc
Description: Thrombin (final concentration 1 nM) was incubated in the absence or presence of thrombin inhibitors (final concentration 100 nM) at 37° C. for 5 min following by addition of recombinant human FVIII (final concentration 100 nM). Sample were collected at 1, 2, 5, 10, 20, 30, 40, and 60 min of reaction and quenched in SDS loading buffer and heating at 95° C. for 5 min. The digestion products at different time points are then characterized on a 4-20% PAGE gel. Thrombin's activity on activating FVIII in the absence and presence of thrombin inhibitors were quantified using the time-course concentration of intact light chain under thrombin digestion determined by band intensity. The assay was performed in duplicates.

whole human blood = experiment: Active clotting time (ACT)
Description: Active clotting time (ACT): Citrated blood (72 μL) freshly collected from heathy donors were incubated with 6 μL inhibitors reconstituted in the reaction buffer at room temperature for 3 min following addition of 2.1 μL CaCl2) (245 mM). The blood mixture was then immediately analyzed on an ACT+ cuvette (Accriva Diagnostics) using a Hemochron Jr Signature (Instrumentation Laboratory). The assay was performed with a N value of five. One-way ANOVA test was used to compare between two sets of data.

[6] = Plasma stability (nuclease degradation, denaturing PAGE); type: in vitro ADME; conditions: 500 nM conjugate in human plasma (10 U/mL heparin), 37° C.
Description: FIG. 16. End modification of aptamer for higher plasma stability. (a) 3′ modification of HD22-DAB conjugate with invdT or cholesterol modification retain high inhibition potency to thrombin in fluorogenic substrate assay. (b) End modification of HD22-7A-DAB with 3′ invdT or cholesterol prolong […] in plasma. Plasma was prepared from whole blood collected from healthy volunteers that was supplemented with 10 U/mL of heparin to prevent coagulation. 500 nM of aptamer-drug conjugate were incubated with 200 μL of the plasma at 37° C. 20 μL of plasma reaction was collected at different time point (0, 10, 30, 60, 120, 360 min) and immediately vortexed with 100 μL phosphate buffer saline, 100 μL chloroform, and 200 μL methanol to quench nucleases. A mixture of 100 μL water and 100 μL chloroform was further added to extract the nucleic acids. The mixture was vortexed and centrifuged 500 rcf×20 min, and the aqueous phase containing nucleic acids was collected, lyophilized, reconstituted in water, and analyzed on a 15% polyacrylamide gel containing 7M urea.

thrombin [7] = target: T4, thrombin (Homo sapiens, UniProt P00734); experiment: Bio-layer interferometry; type: binding; design: Human alpha thrombin, human factor Xa, and human fibrinogen were purchased from Haematologic Technologies Inc; purchased Haematologic Technologies Inc
Description: Bio-layer interferometry: Bio-layer inferometry was performed using Octet R8 BLI System (Sartorius). Briefly, 3.3 nM of biotinylated HD22-7A-DAB, HD22-7A-NH2, HD23-7A-DAB, and HD23-7A-NH2 were immobilized to Octet streptavidin biosensors (Sartorius). […] A 30-min dissociation was performed in buffer containing 200 nM HD22-7A-DAB. The existence of free HD22-7A-DAB in dissociation buffer prevents re-binding of thrombin and provides more accurate koff measurements.

thrombin [8] = target: T4, thrombin; conditions: cited from earlier work
[9] = 2 μM AO2 added at 10 min to thrombin-fibrinogen-HD22-7A-DAB (50 nM)

## 11F7t-20A-APX (GAGAGCCCCAGCGAGAUAAUACUUGGCCCCGCUCUUU; 5' APX-C6H12-2'OMeA linker conjugate; modified_base 37 OTHER; Inverted dT)
Human factor Xa
  IC50: 0.17 nM
Normal human plasma [1]
  effect on aPTT, result in words: significantly higher anticoagulant activity than free aptamer, small molecule inhibitor, and their equimolar mixture

## 11F7t-20A-DAB (GAGAGCCCCAGCGAGAUAAUACUUGGCCCCGCUCUUU; 5' DAB-C6H12-2'OMeA linker conjugate; modified_base 37 OTHER; Inverted dT)
Human factor Xa
  IC50: 0.18 nM
  factor Xa inhibition, result in words: significantly higher inhibitory effect of thrombin than DAB, 11F7t, or their equimolar mixture
Human factor Xa; versus free DAB
  enhancement in the IC50 for factor Xa when DAB is conjugated to 11F7t: > 2500 fold
Human alpha thrombin
  thrombin inhibition, result in words: no different from DAB alone

## 11F7t: factor Xa RNA aptamer, SEQ ID NO: 9 (GAGAGCCCCAGCGAGAUAAUACUUGGCCCCGCUCUUU; modified_base 37 OTHER; Inverted dT) [reference compound]
Human factor Xa
  factor Xa inhibition, result in words: showed no inhibition
Factor Xa; free aptamer
  Kd: 1.26 nM

## COc1ccc(-n2nc(C(=O)O)c3c2C(=O)N(c2ccc(N4CCCCC4=O)cc2)CC3)cc1 [APX, apixaban-COOH, reference compound]
Human factor Xa
  IC50: 5.5 nM

## AO2: antidote oligonucleotide complementary to entire HD22 aptamer and linker, SEQ ID NO: 4 (AGTCACCCCAACCTGCCCTACCACGGACTTTTTTTT; antidote oligonucleotide complementary to aptamer and linker, chemistry not given here, further chemistry not given here)
[2]; [9]
  lag time after antidote addition: 9.8 min
  time over which absorbance increased and saturated after antidote: 20.7 min
Normal human plasma [3]; 2 μM AO2
  antidote reversal of HD22-7A-DAB in TT: largely reversed within 5 minutes
Normal human plasma [4]; 2 μM AO2
  antidote reversal of HD22-7A-DAB in PT: efficiently reversed
Normal human plasma [1]; 2 μM AO2
  antidote reversal of HD22-7A-DAB in aPTT: efficiently reversed
Human alpha thrombin; antidote oligonucleotide added to HD22-7A-DAB, FIG. 1c
  reduction of the potency of HD22-7A-DAB by antidote: more than 10,000 fold
Human alpha thrombin
  antidote reversal of thrombin inhibition, result in words: efficiently reversed; also recorded: reduces the potency of the EXACT conjugate to an extent that is significantly lower than free DAB

## AO5.4: antidote for 11F7t-20A-DAB pairing with entire linker and part of aptamer, SEQ ID NO: 11 (TATTATCTCGCTGGGGCTCTCTTTTTTTTTTTTTTTTTTTT; antidote oligonucleotide, chemistry not given here, further chemistry not given here)
Human factor Xa; listed as A05.4
  antidote reversal of factor Xa inhibition by 11F7t-20A-DAB, result in words: efficiently reversed
Human factor Xa; listed as AG5.4
  antidote reversal of factor Xa inhibition by 11F7t-20A-DAB, result in words: effectively reverses the inhibition

## HD1-12A-DAB (GGTTGGTGTGGTTGG; 3' DAB conjugate via C6H12O2 linker, further chemistry not given here)
Human alpha thrombin
  thrombin inhibition, result in words: significantly higher inhibitory effect to thrombin compared with DAB, HD1, or their equimolar mixture
  antidote reversal of thrombin inhibition, result in words: efficiently reversed by specific antidotes; also recorded: efficiently reversed by an antisense oligo

## HD22-7A-DAB
[2]
  inhibition of thrombin-mediated fibrin clot formation, result in words: completely inhibited
[5]
  inhibition of thrombin-mediated FVIII cleavage, result in words: no proteolysis was observed for over one hour
Normal human plasma [3]; 31 nM
  TT clotting time: > 999 s
Normal human plasma [3]; below 13.4 nM
  effect on TT at inhibitor concentration lower than the added thrombin: limited effect on TT
Normal human plasma [3]; concentration exceeds 16 nM
  TT clotting time (measurable range of analyzer): > 999 s
Normal human plasma [3]
  effect on TT, result in words: rivals UFH
Normal human plasma [4]
  effect on PT, result in words: significantly longer than the same concentration of DAB; also recorded: rivals UFH
Normal human plasma [1]
  effect on aPTT, result in words: significantly longer than the same concentration of DAB; also recorded: weaker anticoagulant than UFH
Whole human blood; 1 μM
  ACT compared with 5 U/mL UFH: comparable to
Whole human blood; 2 μM
  ACT compared with 5 U/mL UFH: significantly higher than
Whole human blood; 2 μM, whole blood
  ACT (measurable range of analyzer): > 999 s
Whole human blood; 1-μM concentration, whole human blood
  ACT: 624 s
Whole human blood; whole human blood
  effect on ACT, result in words: dose dependently prolonged ACT; also recorded: significantly higher than the ACTs that followed the addition of DAB, HD22, or their equimolar mixture
[6]
  half-life in plasma: around 1 hour
Human alpha thrombin; 1 nM inhibitor
  thrombin inhibition at a concentration of 1 nM: completely inhibits thrombin activity
Human alpha thrombin
  thrombin inhibition, result in words: significantly higher inhibitory effect of thrombin than DAB, HD22, or their equimolar mixture
  maximum inhibition of thrombin activity: > 99%
Human alpha thrombin; ratio of IC50 against thrombin
  potency higher than DAB: 500 fold
Thrombin [7]; dissociation in buffer with 200 nM HD22-7A-DAB
  koff for thrombin binding: 0.0021 s⁻¹
Thrombin [7]; immobilized biotinylated inhibitor
  kon for thrombin binding: 3.9e+07 M⁻¹ s⁻¹

## HD22: thrombin exosite II-binding DNA aptamer, SEQ ID NO: 1 [reference compound]
[2]
  inhibition of thrombin-mediated fibrin clot formation, result in words: did not inhibit this thrombin activity
[5]
  inhibition of thrombin-mediated FVIII cleavage, result in words: showed an inhibitory effect
Normal human plasma [3]
  effect on TT, result in words: minimally affected TT
Normal human plasma [4]
  effect on PT, result in words: no anticoagulant effect
Normal human plasma [1]
  effect on aPTT, result in words: no anticoagulant effect
Thrombin [8]; read-out: KD, thrombin anion binding exosite 2
  Kd: 0.5 nM
Human alpha thrombin
  maximum inhibition of thrombin activity: 30%

## TAP: Tick anticoagulant peptide secreted by Ornithodoros moubata, factor Xa inhibitor (YNRLCIKPRDWIDECDSNEGGERAYFRNGKGGCDSFWICPEDHTGADYYSSYRDCFNACI; UniProt P17726 1-60, looked up)
Factor Xa; read-out: Ki, free FXa
  Ki: 0.18 nM

## hirudin
Thrombin [8]; read-out: inhibition constant (Ki), thrombin
  Ki: 0.01 nM

From patent US20260176636A1, “APTAMER-DIRECT INHIBITOR CONJUGATES AND METHODS OF USING THE SAME” (Duke University, priority 2022, published 2026)
